Values of other authors, collected in US12697345B2, “Microparticles containing stabilized CBD oil, and methods for the production thereof” (priority 2021, dated 2026).

How the values were obtained:
[1] = 600 mg oral CBD, healthy male volunteers
[2] = estimated
[3] = aerosolized

## C=C(C)[C@@H]1CCC(C)=CC1c1c(O)cc(CCCCC)cc1O (stereo partly drawn) [CBD, 2-[(6R)-3-methyl-6-prop-1-en-2-ylcyclohex-2-en-1-yl]-5-pentylbenzene-1,3-diol]
[1]; 1 h
  mean±SD whole blood level of CBD at 1 hour: 0.36 (0.64) ng/mL
[1]; 2 h
  mean±SD whole blood level of CBD at 2 hours: 1.62 (2.98) ng/mL
[1]; 3 h
  mean±SD whole blood level of CBD at 3 hours: 3.4 (6.42) ng/mL
[2]
  Bioavailability from oral delivery: 6%
[3]
  Time to peak plasma concentrations: 5 to 10 min
